We go through two compounds from article PMC7915353, “Magnolol and Honokiol: Two Natural Compounds with Similar Chemical Structure but Different Physicochemical and Stability Properties” (Pharmaceutics, 2021).

≈ marks a conversion by molar mass, not a printed value. Where two headings read alike, the source gives them in different places.

For series [1] the following is noted: computer program; cited from earlier work.
Series [2] is described as follows: Solubility at different pH values at 37 °C, shake-flask. Type of series: physicochemical. As to conditions: for solubility at 24 h: 37 °C, thermodynamic from solid. As to the method: (§1) The aqueous solubility was evaluated using the shake-flask method. Briefly, approximately 40 mg of magnolol or honokiol were added to a volume of 10 mL of distilled water. The mixture was kept in constant agitation for a total period of 24–48 h. Samples were taken at 24 and 48 h, centrifuged for 2 min at 10× g, and the concentration of the dissolved compound was determined in the supernatant using the analytical method described above. The 48-h sample was used to confirm that a dissolution equilibrium had been reached after 24 h of agitation.
Solubility at different pH values (1.2, 4.5, 6.8, 7.4, 8, 9, and 10) was determined at 37 °C after 24 h of agitation. The composition of the solutions is described in USP 35 [33] and the European Pharmacopeia 7.0 [34]. Briefly, the pH 1.2 solution was prepared with diluted hydrochloric acid, the solutions with pH values from 4.5 to 7.4 were phosphate buffers, and the solutions with pH 9 and 10 were borate buffers. Additionally, two pH 8 solutions were prepared using phosphate and borate buffers.

Series [3] is described as follows: Stability at room temperature and 37 °C, 30 days, different pH. Type of series: physicochemical. As to conditions: one month. The protocol: The stability was also evaluated at room temperature and 37 °C (pH 1.2, 4.5, 6.8, 7.4, 8, 9, and 10) after an incubation period of 30 days.
The nature of series [4]: pKa, graphical estimation from solubility-pH data. Type of series: physicochemical. From the text:
Among the components of Magnolia officinalis extracts with pharmacological activity, the most relevant are magnolol and honokiol. These natural compounds have attracted great interest in recent years for their potential therapeutic applications. However, a limitation in the use of magnolol and honokiol is their poor water solubility, which can greatly restrict gastrointestinal absorption and bioavailability. The water solubilities of magnolol and honokiol at room temperature obtained in this work were 12.5 and 50.6 µg/mL, respectively. However, the solubility of both compounds can be affected by the medium pH, since their molecules contain phenolic groups that can be ionized at alkaline pH values. […] Using the obtained solubility–pH data, the pKa of magnolol can be estimated from the intersection of the straight lines corresponding to pH 1.2–6.8 and to pH 7.4–10 in Figure 3 [36]. […] This discrepancy is probably due to the reduced number of values for the second straight line (pH 9 and 10). […] The different solubility values obtained in both studies could be related to the different agitation time, which was shorter in the study of Lee et al. (2 h vs. 24 h). […] In the case of honokiol, no data about its solubility at different pH values have been found in the available literature. […] Again, the discrepancy in these values could be related to the agitation time (4 h vs. 24 h).

Series [5] can be described thus: Solubility in water, shake-flask method. Type of series: physicochemical. The protocol:
as §1

Series [6] is described as follows: Octanol-water distribution coefficients. Type of series: physicochemical. As to the method: Octanol–water distribution coefficients (Do/w) of magnolol and honokiol were determined by dissolving each compound in n-octanol, previously saturated with buffer (pH 1.2, 4.5, 6.8, and 7.4) or water, using glass vials. Buffers and water saturated with n-octanol were added to the corresponding vials, which were stirred for approximately 12 h at room temperature. Thereafter, the organic and the aqueous phases were separated by centrifuging the contents of the vials (2 min at 8000× g), and the concentration of each compound in both phases was determined by HPLC. The distribution coefficient was obtained as the quotient of the concentrations in the n-octanol and aqueous phases.

For series [7] the following is noted: cited from earlier work.
The nature of series [8]: Forced-degradation at 60 °C, different pH values. Type of series: physicochemical. To be noted: 24 h, 0.1 M HCl, 0.1 M NaOH, buffers pH 7.4-10. As to the method:
The stability of both natural products was evaluated in forced conditions at 60 °C using different pH values. Magnolol and honokiol solutions were prepared in 0.1 M HCl, 0.1 M NaOH, and buffers (pH 7.4, 8, 9, and 10). These solutions were kept at 60 °C for 24 h and the concentration of remaining magnolol and honokiol was determined.

The conditions of series [9]: cited from earlier work. This is another data set of the same source.
A short description of series [10]: Stability under oxidizing conditions (3% H2O2). Type of series: physicochemical. As to conditions: 3% hydrogen peroxide, 24 h, room temperature, 37 °C and 60 °C. As to the method: Additionally, stability was examined under oxidizing conditions using 3% H2O2. These samples were kept at room temperature, 37 °C, and 60 °C, for 24 h. The concentration of samples was expressed as a percentage of the initial concentration.

With `C=CCc1ccc(O)c(-c2ccc(O)c(CC=C)c2)c1` [Honokiol, 3,5′-diallyl-4,2′-dihydroxybiphenyl], the “log Po/w, theoretical estimation” value in [1] is 4.20. Besides, the solubility at 24 h in [2] (pH 10, aqueous buffer) is roughly 220 µg/mL (≈ 826 µM); in series [2], roughly 75 µg/mL (≈ 282 µM); in series [5], 50.6 ± 1.2 µg/mL (≈ 190 µM). Also, the Degradation entry is recorded as “a decrease in the initial concentration was detected” in series [3] (pH 4.5 and 6.8, 37 °C); “no degradation” in series [3] (pH values lower than 7.4, room temperature). Besides, the “Concentration, percentage of the initial concentration” value in series [3] (pH 7.4, 37 °C) turned out to be 29%; in series [3] (pH 7.4, room temperature) it was 84%. In series [4], the pKa was 8.5. Further, the logP is 4.27 ± 0.06 in series [6] (Log Do/w) and roughly 4.5 in series [6] (log Po/w). Moreover, the logD in [6] (pH 1.2) turned out to be 4.48 ± 0.05; in series [6] (pH 4.5) it was 4.5 ± 0.08; in [6] (pH 6.8) it was 4.48 ± 0.04; in series [6] (pH 7.4), 4.28 ± 0.05.
As to `C=CCc1ccc(O)c(-c2cc(CC=C)ccc2O)c1` [Magnolol, 5, 5′-diallyl-2, 2′-dihydroxybiphenyl], the “log Po/w, theoretical estimation” value in series [1] is given as 3.94. Moreover, the solubility at 24 h was 14.8 µg/mL (≈ 55.4 µM) in [2] (pH 1.2, simulated gastric fluid, pH 1.2, 37 °C, 24 h agitation, read-out: Solubility); 30.5 µg/mL (≈ 115 µM) in series [2] (pH 7.4, aqueous buffer, pH 7.4, 37 °C, 24 h agitation, read-out: Solubility); 138 µg/mL (≈ 518 µM) in series [2] (pH 8, aqueous buffer, pH 8 borate buffer, read-out: Solubility); 76 µg/mL (≈ 285 µM) in series [2] (pH 8, aqueous buffer, pH 8 phosphate buffer, read-out: Solubility); roughly 2700 µg/mL (≈ 10100 µM) in series [2] (pH 10, aqueous buffer, pH 10, 37 °C, read-out: Solubility); roughly 16 µg/mL (≈ 60.1 µM) in [2] (pH values lower than 7.4, 37 °C, 24 h agitation, read-out: Solubility). Also, in series [5] (water, room temperature, preliminary solubility test, read-out: Solubility in water), the solubility at 24 h was 12.5 ± 0.6 µg/mL (≈ 46.9 µM). Further, the “Solubility at pH 7.4 in comparison to pH 1.2, fold higher” value in series [2] (present study) is on record as roughly 2 fold. For the same compound, in series [4] (intersection of straight lines of solubility-pH profile (Figure 3), read-out: pKa, graphical estimation), the pKa was 7.2. Also, the Solubility in [7] (pH 1.2, 2 h of agitation) is 3.25 µg/mL (≈ 12.2 µM); in series [7] (pH 3.5, 2 h of agitation), 4.95 µg/mL (≈ 18.6 µM); in series [7] (pH 7.4, 2 h of agitation) it was 0.04 µg/mL (≈ 0.15 µM). Further, in series [7] (study by Lee et al.), the “Solubility at pH 7.4 in comparison to pH 1.2, fold lower” value is on record as “approximately 99 fold”. Also, the “Stability at different pH values” in series [8] is “relatively stable”. Also, in series [9], the “pKa (first value)” value is 7.10. For the same compound, the “pKa (second value)” value in [9] is given as 10.58. In addition, the logP was 4.07 ± 0.09 in [6] (aqueous phase H2O, n-octanol, room temperature, mean ± SD, n = 4, read-out: Log Do/w) and roughly 4.5 in [6] (from log Do/w values at the acidic pHs, read-out: log Po/w). Moreover, the logD amounted to 4.5 ± 0.1 in [6] (aqueous phase pH 1.2, n-octanol, room temperature, mean ± SD, n = 4, read-out: Log Do/w); 4.55 ± 0.11 in series [6] (aqueous phase pH 4.5, n-octanol, room temperature, mean ± SD, n = 4, read-out: Log Do/w); 4.48 ± 0.06 in series [6] (aqueous phase pH 6.8, n-octanol, room temperature, mean ± SD, n = 4, read-out: Log Do/w); 4.3 ± 0.08 in series [6] (aqueous phase pH 7.4, n-octanol, room temperature, mean ± SD, n = 4, read-out: Log Do/w). For the same compound, the “Stability under oxidizing conditions” value in [10] was “degradation increased with the temperature”.
